Patent US10577610B2, “EpCAM aptamers and conjugates thereof” (Deakin University, priority 2015, dated 2020)
[invdT] = inverted (3'-3') thymidine; {TYE665} = TYE665 fluorescent dye

Experiments:
mouse TfR = target: T1, mouse TfR (Mus musculus, UniProt Q62351); experiment: Flow cytometry binding assay on bEnd.3 cells (TfR-positive); settings: bEnd.3 (TfR-positive) cells, n=3
T1 construct: bEnd.3 cells, mouse cells positive for TfR; host or cells: bEnd.3 mouse cerebral endothelial cells
Description: In order to determine the binding affinity (equilibrium dissociation constant KD) of the aptamers. Binding assays were conducted to measure the binding to native EpCAM protein expressed on the cell surface. The aptamers were incubated with the cells at concentrations ranging from 0 nM to 400 nM. These were subsequently analysed by flow cytometry. Aptamers were thawed from storage (-20° C.) prior to use. These were then diluted via serial dilutions with phosphate buffered saline (PBS) in order to achieve the desired concentrations. PBS was supplemented with a MgCl2 concentration appropriate for the aptamer (1 mM for anti-TfR aptamers; 5 mM for conjugate aptamers). […] Concurrently, subcultured cells were incubated in blocking buffer (PBS with 10% FCS, 1 mg/mL BSA, 0.1 mg/mL tRNA) for 30 minutes. Following centrifugation, blocking buffer was removed and cells were resuspended in binding buffer (PBS with 10% FCS, 1 mg/mL BSA, 0.1 mg/mL tRNA). Cells (50 μL) were then incubated with the aptamers (50 μL) for 30 minutes at 37° C. at a range of concentrations (0 nM, 20 nM, 40 nM, 60 nM, 80 nM, 100 nM, 200 nM, 400 nM). Following this, cells were washed in 100 μL PBS three times before final resuspension for flow cytometry. Aptamers were incubated with the chosen cell lines (bEnd.3 cells, mouse cells positive for TfR; HEY cells, human ovarian cancer cell line positive for EpCAM; and MOLT4 human cells negative for both TfR and EpCAM) at a range of concentrations. Aptamer-bound cells were analysed using a FACS Canto II flow cytometer (Becton Dickinson), counting 10,000 events for each sample, in order to determine the binding affinity of the aptamers. […] The value for the auto fluorescent 0 nM concentration was subtracted from the other figures to account for background fluorescence (Li N et al (2009) Journal of Proteome Research 8(5):2438-48). […] The binding affinities of aptamers TfR1, TfR2, […] determined semi-quantitatively via flow cytometry, using bEnd.3 mouse cerebral endothelial cells as a Tf R-positive cell line and MOLT4 acute lymphoblastic leukaemia cells-which express the human TfR, but not the mouse TfR (Sutherland R et al (1981) PNAS 78(7):4515-9)-as a negative control. Three independent binding assays were performed for each aptamer against each cell line. […] Three independent binding assays were performed for these aptamer against all three cell lines (bEnd.3, HEY and MOLT4).

[1] = Doxorubicin loading efficiency by fluorescence spectroscopy; settings: mean±SEM
Source text: The anthracycline class of drugs, including DOX, have fluorescence properties that become quenched after intercalation into DNA (Valentini L et al (1985) II Farmaco edizione scientifica 40(6):377-90. The natural fluorescence of doxorubicin and its subsequent quenching after intercalating with the DNA EpCAM aptamers was utilised for the measurement of the extent of doxorubicin conjugation via Fluorescent Spectroscopy. The conjugation process was studied using different aptamer-doxorubicin molar ratios (0, 0.01, 0.04, 0.08, 0.1, 0.2, 0.3, 0.4, 0.5, and 0.6) and analysed with a fluorescence plate reader based on a standard curve of free doxorubicin.
Prior to conjugation, aptamers were prepared for application as previously described. DOX was then combined with aptamer in conjugation buffer containing 0.1 M sodium acetate, 0.05 M NaCl, and 5 mM MgCl2 and incubated at 37° C. in an Orbital mixer/incubator (RATEK) for 1 hour with agitation (75 r.p.m). The conjugate was then passed through a Sephadex®G-10 medium column (Sigma-Aldrich) to separate the aptamer: doxorubicin conjugate from free DOX. As DOX has a natural fluorescence which is subsequently quenched following intercalation into double stranded DNA, this characteristic of DOX was exploited to determine the amount of DOX that was intercalated into the double stranded stem region of the conjugate aptamers. After column separation, DOX was extracted from the conjugate yield by adding 150 uL of acetonitrile. This solution was then centrifuged for 5 min at 21,000 g. Eighty microliters of supernatant was removed and fluorescent intensity was quantified with a fluorescent plate reader. A calibration standard curve was prepared with known concentrations of DOX under the same condition
Data was analysed using Graph Pad Prism 3 and data was reported as mean and standard error of the mean (mean±SEM) unless otherwise stated.

HT29 and HEY cells = experiment: Confocal microscopy internalisation of EpCAM aptamers into EpCAM positive cells; type: cell-based; settings: 200 nM, 60 min
Description: The ability of each DNA EpCAM aptamer to be internalised was established through confocal microscopy. HT29, HEY, K652 and HEK293T were seeded at 8×10^5 cells per well in 8-chamber slide for 24 h in preparation for confocal […]. Cells were incubated with blocking buffer for 60 min, followed by resuspension in binding buffer and containing 200 nM EpCAM aptamer or negative control aptamer and incubated for 60 min at 37° C. Bisbenzimide Hoechst 33342 (3 mg/ml) (Sigma) was added to the cells during the final 10 min of incubation. The aptamer solution was removed and the cells were washed three times for 5 min each in PBS prior to visualisation using a FluoView FV10i laser scanning confocal microscope (Olympus).

[2] = target: T2, native EpCAM protein expressed on the cell surface (HEY cells) (Homo sapiens, UniProt P16422); experiment: Flow cytometry binding assay on HEY cells (EpCAM-positive); settings: HEY (EpCAM-positive) cells, flow cytometry, n=3
T2 construct: host or cells: HEY ovarian cancer cells
T2 sequence (P16422 24-314): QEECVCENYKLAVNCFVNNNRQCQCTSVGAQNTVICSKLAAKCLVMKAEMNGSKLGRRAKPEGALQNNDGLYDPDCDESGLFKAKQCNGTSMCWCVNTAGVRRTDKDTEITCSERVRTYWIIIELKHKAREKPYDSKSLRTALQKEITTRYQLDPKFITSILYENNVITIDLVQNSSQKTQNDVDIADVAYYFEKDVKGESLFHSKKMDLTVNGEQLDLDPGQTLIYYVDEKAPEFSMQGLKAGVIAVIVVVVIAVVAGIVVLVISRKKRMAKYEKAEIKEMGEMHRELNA
Description: In order to determine the binding affinity (equilibrium dissociation constant KD) of the aptamers. Binding assays were conducted to measure the binding to native EpCAM protein expressed on the cell surface. The aptamers were incubated with the cells at concentrations ranging from 0 nM to 400 nM. These were subsequently analysed by flow cytometry. Aptamers were thawed from storage (−20° C.) prior to use. These were then diluted via serial dilutions with phosphate buffered saline (PBS) in order to achieve the desired concentrations. PBS was supplemented with a MgCl2 concentration appropriate for the aptamer (1 mM for anti-TfR aptamers; 5 mM for conjugate aptamers). Aptamers were then folded into their 3D structures using a thermocycler (85° C. for 5 minutes, slow cooling to 22° C. over 10 minutes and 37° C. for 15 minutes).
Concurrently, subcultured cells were incubated in blocking buffer (PBS with 10% FCS, 1 mg/mL BSA, 0.1 mg/mL tRNA) for 30 minutes. Following centrifugation, blocking buffer was removed and cells were resuspended in binding buffer (PBS with 10% FCS, 1 mg/mL BSA, 0.1 mg/mL tRNA). Cells (50 μL) were then incubated with the aptamers (50 μL) for 30 minutes at 37° C. at a range of concentrations (0 nM, 20 nM, 40 nM, 60 nM, 80 nM, 100 nM, 200 nM, 400 nM). Following this, cells were washed in 100 μL PBS three times before final resuspension for flow cytometry.
Aptamers were incubated with the chosen cell lines (bEnd.3 cells, mouse cells positive for TfR; HEY cells, human ovarian cancer cell line positive for EpCAM; and MOLT4 human cells negative for both TfR and EpCAM) at a range of concentrations. Aptamer-bound cells were analysed using a FACS Canto II flow cytometer (Becton Dickinson), counting 10,000 events for each sample, in order to determine the binding affinity of the aptamers. […] The value for the auto fluorescent 0 nM concentration was subtracted from the other figures to account for background fluorescence (Li N et al (2009) Journal of Proteome Research 8(5):2438-48). The resultant values were then used to determine the dissociation constant (KD) via the Graph Pad Prism 3 software. […]
The binding affinities of aptamers Bi1, Bi2 and Bi3 were determined semi-quantitatively via flow cytometry, using bEnd.3 cells to assess reactivity with TfR, HEY cells to determine EpCAM specificity and the MOLT4 cell line as a negative control. Three independent binding assays were performed for these aptamer against all three cell lines (bEnd.3, HEY and MOLT4). […]

[3] = target: T3, native EpCAM protein expressed on the cell surface (HT29 cells) (Homo sapiens, UniProt P16422); experiment: Flow cytometry binding assay on HT29 cells (EpCAM-positive); settings: n=3
T3 construct: endogenous in cells; host or cells: HT29 cells
T3 sequence (P16422 24-314): T2 sequence (P16422 24-314)
Description: (§1) The equilibrium dissociation constant (KD) of each DNA EpCAM aptamer (Ep7, Ep8 and Ep9) was determined by measuring its binding to native EpCAM protein expressed on the cell surface using flow cytometry. HT29, HEY and HEK293T (5×10^5) cells were first incubated with blocking buffer (PBS containing 10% FCS, 1 mg/mL tRNA, 1 mg/mL BSA) for 30 minutes followed by a single wash with binding buffer (PBS containing 10% FCS, 1 mg/mL tRNA, 1 mg/mL BSA) prior to incubation with serial dilutions of concentrations of the respective TYE665-labelled aptamers (0 to 200 nM) in binding buffer for 30 min at 37° C. The cells were washed three times with PBS and resuspended in PBS prior to flow cytometric analysis. The fluorescent intensity was determined using a FACS Canto II flow cytometer (Becton Dickinson), counting 10,000 events for each sample. The mean fluorescent intensity of each concentration was […] the auto fluorescent control and the KD for each aptamer was calculated from the normalised values for fluorescent intensity.

HEK293T and K562 = experiment: Flow cytometry binding to EpCAM negative cell lines; settings: HEK293T and K562, 0 and 100 nM
Description: as §1

T1 sequence (Q62351 whole entry): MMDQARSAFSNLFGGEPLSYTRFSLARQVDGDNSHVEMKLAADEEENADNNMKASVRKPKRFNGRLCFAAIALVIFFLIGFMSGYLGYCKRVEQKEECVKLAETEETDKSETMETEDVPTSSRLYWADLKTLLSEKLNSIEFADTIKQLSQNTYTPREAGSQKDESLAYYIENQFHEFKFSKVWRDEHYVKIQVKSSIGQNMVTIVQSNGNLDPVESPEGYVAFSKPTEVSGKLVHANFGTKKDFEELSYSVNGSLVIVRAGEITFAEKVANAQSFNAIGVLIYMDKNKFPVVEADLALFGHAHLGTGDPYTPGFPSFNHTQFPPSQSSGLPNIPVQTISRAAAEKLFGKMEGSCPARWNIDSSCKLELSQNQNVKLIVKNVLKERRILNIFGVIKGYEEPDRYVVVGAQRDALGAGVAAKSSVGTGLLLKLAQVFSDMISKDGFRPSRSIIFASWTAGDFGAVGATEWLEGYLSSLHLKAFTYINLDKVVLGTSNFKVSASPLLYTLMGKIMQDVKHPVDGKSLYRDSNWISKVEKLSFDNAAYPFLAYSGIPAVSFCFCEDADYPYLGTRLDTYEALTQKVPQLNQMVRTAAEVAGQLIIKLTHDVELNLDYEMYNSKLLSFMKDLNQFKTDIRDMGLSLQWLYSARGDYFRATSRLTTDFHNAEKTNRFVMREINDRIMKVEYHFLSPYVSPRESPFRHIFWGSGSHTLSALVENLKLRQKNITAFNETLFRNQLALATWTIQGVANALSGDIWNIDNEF

Row | Substance | Kd (mouse TfR) [nM] | Molar ratio aptamer:dox [1] | Internalisation by EpCAM positive cells (HT29 and HEY cells) | Kd [2] [nM] | Kd [3] [nM] | Binding to EpCAM negative cell lines (HEK293T and K562)
1 | TfR1: truncated fourteen nucleotide DNA aptamer against mouse TfR, SEQ ID NO:4 (GCGTGTGCACACGC; DNA, backbone not given here; further chemistry not fully specified) | 5760 ± 7120 | – | – | – | – | –
2 | Ex Ep7: extended Ep7 aptamer with the same binding loop as Ep7, SEQ ID NO:13 (CGCGCGCCGCAGGTTGCGTGCGGCGCGCG; DNA, 5' {TYE665}, 3' [invdT], backbone not given here) | – | 1.17 ± 0.02 | internalised | 63.7 ± 14.4 | – | –
3 | Scr Ex Ep7: scrambled extended Ep7 aptamer with randomly selected base pairs in the binding loop, SEQ ID NO:14 (CGCGCGCCGCATTCCTTTTGCGGCGCGCG; DNA, 5' {TYE665}, 3' [invdT], backbone not given here) | – | 1.01 ± 0.01 | not internalised | 521 ± 272 | – | –
4 | Ep9: truncated DNA EpCAM aptamer derived from SYL3C, SEQ ID NO:12 (GGGGTTGGCCCC; DNA, 5' {TYE665}, 3' [invdT], backbone not given here) | – | 0.35 ± 0.06 | internalised | 266 ± 121 | 31.8 ± 7.65 | did not bind
5 | TfR2: version of TfR1 with scrambled binding loop sequence, SEQ ID NO:5 (DNA GCGTGGGCCCACGC; DNA, backbone not given here; further chemistry not fully specified) | 525 ± 161 | – | – | – | – | –
6 | Ep7: truncated DNA EpCAM aptamer derived from SYL3C, SEQ ID NO:9 (ACAGAGGTTGCGTCTG; DNA, [invdT] at 3' end, 5' {TYE665}, backbone not given here) | – | 0.42 ± 0.11 | internalised | 248 ± 82.2 | 11 ± 2.79 | did not bind
7 | 5′ CACTACAGAGGTTGCGTCTGTCCCACGTTGTCATGGGGGGTTGGCCTG 3′ (CACTACAGAGGTTGCGTCTGTCCCACGTTGTCATGGGGGGTTGGCCTG; listed as DNA, chemistry not fully specified) [Full length EpCAM aptamer, reference compound] | – | 0.53 ± 0.13 | – | 495 ± 147 | 9 ± 1.68 | –
8 | Ep8: truncated DNA EpCAM aptamer derived from SYL3C, SEQ ID NO:11 (CCCACGTTGTCATGGG; DNA, 5' {TYE665}, 3' [invdT], backbone not given here) | – | 0.38 ± 0.06 | internalised | 696 ± 486 | 6.19 ± 2.24 | did not bind
